The source of these data is patent USRE47689E1, “Compounds for treating spinal muscular atrophy” (PTC Therapeutics, Inc., priority 2011, dated 2019).

One assay relates to Smn protein. Kind of assay: Smn protein assay in cultured cells (SMN HTRF). It is filed as cell-based, human. As to conditions: 48 hours; for Smn protein expression: SMA Type 1 patient fibroblast cells, SMN HTRF assay; for maximum fold (Fold) increase of Smn protein: SMA patient fibroblast cells, 7-point concentration data, fold increase relative to vehicle control (SMN HTRF). In a few lines:
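Lysates in RIPA with protease inhibitors are incubated overnight at room temperature with HTRF anti-SMN antibodies. EC1.5x is derived from fold increase in ΔF over vehicle.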

Assay [1] deals with SMA Δ7 homozygous knockout mice. Kind of assay: Survival of neonatal Δ7 SMA mice. It is filed as in vivo, mouse. The note with it: IP QD from PND 3, then orally BID until study end, compared to vehicle. How it is done: The change in the number of surviving mice over time is used to determine whether treatment with a test compound improves survival.
Protocol. SMA Δ7 homozygous knockout mice are dosed intraperitoneally (IP) with test compound or vehicle (100% DMSO) once per day (QD) from postnatal day (PND) 3 until the dose regimen is switched to an oral dose twice per day (BID) in 0.5% hydroxypropylmethyl cellulose (HPMC) with 0.1% Tween-80 at a dose 3.16-fold higher than the dose used for IP. The number of surviving mice in each group is recorded every day and plotted as a percent of total number of mice. Tissues of SMA Δ7 and age-matched heterozygous mice are collected for the measurement of Smn protein levels and processed as detailed in Example 10. The total protein normalized Smn protein levels measured in the tissues are plotted as a percent of those in the age-matched heterozygous mice tissues, with the heterozygous levels represented as 100 percent. The level of Smn protein in the test compound treated mice tissue relative to that in heterozygous mice tissue is indicated as a percent value above each bar in the graph.

Structures are written as SMILES. A value given as a limit tells only on which side of the number the result lay.

`CC(C)NCCc1ccc2cc(-c3nc4c(Cl)cccc4s3)c(=O)oc2c1` [Cpd 35, 3-(4-chloro-1,3-benzothiazol-2-yl)-7-[2-(propan-2-ylamino)ethyl]-2H-chromen-2-one]: in the assay with Smn protein, the Smn protein expression entry is “dose dependent increase in Smn protein expression” and the “maximum fold (Fold) increase of Smn protein” value is listed as “* (maximum fold increase of ≤1.2)”. Further, the survival entry in assay [1] is listed as “improved compared to vehicle treated mice”.
In the case of `CCN1CCN(c2ccc3cc(-c4cn5cc(C)nc(C)c5n4)c(=O)oc3c2)C[C@@H]1C` [Cpd 626, 3-(6,8-dimethylimidazo[1,2-a]pyrazin-2-yl)-7-[(3S)-4-ethyl-3-methylpiperazin-1-yl]-2H-chromen-2-one], the EC1.5x (concentration giving 1.5-fold Smn protein increase) in the assay with Smn protein (SMA Type 1 patient fibroblast cells (GM03813), 7-point concentration curve, SMN HTRF, concentration producing 1.5 times Smn protein vs DMSO vehicle control, read-out: EC1.5x for Smn protein expression) is less than 300 nM. Further, in the assay on Smn protein, the Smn protein expression entry is on record as “dose dependent increase in Smn protein expression”; the “maximum fold (Fold) increase of Smn protein” value was “**** (fold increase between >1.5 and ≤1.65)”. In assay [1], the survival result is “improved compared to vehicle treated mice”.
